Reference: US20250129104A1, “7H-PYRROLO[2,3-D]PYRIMIDINES AND PREPARATION AND USES THEREOF” (BioSplice Therapeutics, Inc., priority 2021, published 2025)

Biological target: recombinant DYRK1A kinase (Homo sapiens (Human), UniProt Q13627)
Assay: DYRK1A kinase assay (Ser/Thr 18 peptide Z-lyte FRET assay)
Type: biochemical
Settings: DYRK1A kinase activity; 15 μM ATP, 1 h room temperature; method text calls the value IC50
Description: Representative compounds were screened using the assay procedure for DYRK1A kinase activity as described below.
Each compound was dissolved in DMSO as a 10 mM stock and used to prepare compound source plates. Serial dilution (1:3, 11-point dose-response curves from 10 μM to 0.00016 μM) and compound transfer was performed using the ECHO 550 (Labcyte, Sunnyvale, CA) into 1536-well black-walled round bottom plates (Corning).
The DYRK1A kinase assay was run using the Ser/Thr 18 peptide Z-lyte assay kit according to manufacturer's instructions (Life Technologies—a Division of Thermo-Fisher). This is a non-radioactive assay using fluorescence resonance energy transfer (FRET) between coumarin and fluorescein to detect kinase activity which is represented as a ratio of coumarin emission/fluorescein emission.
Briefly, recombinant DYRK1A kinase, ATP and Ser/Thr peptide 18 were prepared in 1× Kinase buffer to final concentrations of 0.25 μg/mL, 15 μM, and 4 μM respectively. The mixture was allowed to incubate with the representative compounds for one hour at room temperature. All reactions were performed in duplicate. Unphosphorylated (“0% Control”) and phosphorylated (“100% control”) forms of Ser/Thr 18 served as control reactions. Additionally, an 11-point dose-response curve of Staurosporine (1 uM top) was run to serve as a positive compound control.
After incubation, Development Reagent A was diluted in Development Buffer then added to the reaction and allowed to further incubate for one hour at room temperature. The plate was read at Ex 400 Em […] to detect the coumarin signal and Ex 400 Em 520 to measure the signal (EnVision Multilabel Plate Reader, PerkinElmer).
The Emission ratio (Em) was calculated as a ratio of the coumarin (C) emission signal (at 445 nm)/Fluorescein (F) emission signal (at 520 nm). The percent phosphorylation was then calculated using the following formula: [1−((Em ratio×F100%)−C100%)/((C0%−C100%)+(Em ratio×(F100%−F0%)))]. Dose-response curves were generated, and inhibitory concentration (IC50) values were calculated using non-linear regression curve fit in the Dotmatics' Studies Software (Bishops Stortford, UK).

| Compound | EC50 [nM] |
| --- | --- |
| CC(C)(F)CNc1ncc2c(-c3cc(F)c4ncnn4c3)c[nH]c2n1 [Compound 774, N-(2-Fluoro-2-methylpropyl)-5-(8-fluoro-[1,2,4]triazolo[1,5-a]pyridin-6-yl)-7H-pyrrolo[2,3-d]pyrimidin-2-amine] | 76.3 |
| CC(C)Nc1ncc2c(-c3ccn4ncnc4c3)c[nH]c2n1 [Compound 804, 5-([1,2,4]Triazolo[1,5-a]pyridin-7-yl)-N-isopropyl-7H-pyrrolo[2,3-d]pyrimidin-2-amine] | 72.1 |
| C[C@@H](Nc1ncc2c(-c3ccn4ncnc4c3)c[nH]c2n1)C(F)(F)F [Compound 806, (R)-5-([1,2,4]Triazolo[1,5-a]pyridin-7-yl)-N-(1,1,1-trifluoropropan-2-yl)-7H-pyrrolo[2,3-d]pyrimidin-2-amine] | 18.8 |
| C[C@H](Nc1ncc2c(-c3ccn4ncnc4c3)c[nH]c2n1)C(F)(F)F [Compound 807, (S)-5-([1,2,4]Triazolo[1,5-a]pyridin-7-yl)-N-(1,1,1-trifluoropropan-2-yl)-7H-pyrrolo[2,3-d]pyrimidin-2-amine] | 165 |
| CN1CCN(c2ccc(CNc3ncc4c(-c5ccn6ncnc6c5)c[nH]c4n3)cn2)CC1 [Compound 808, 5-([1,2,4]Triazolo[1,5-a]pyridin-7-yl)-N-((6-(4-methylpiperazin-1-yl)pyridin-3-yl)methyl)-7H-pyrrolo[2,3-d]pyrimidin-2-amine] | 52.3 |
| CC(C)Cc1ncc2c(-c3ccc4nnn(C)c4c3)c[nH]c2n1 [Compound 810, 6-(2-Isobutyl-7H-pyrrolo[2,3-d]pyrimidin-5-yl)-1-methyl-1H-benzo[d][1,2,3]triazole] | 66 |
| Cn1nnc2ccc(-c3c[nH]c4nc(CCC(F)(F)F)ncc34)cc21 [Compound 811, 1-Methyl-6-(2-(3,3,3-trifluoropropyl)-7H-pyrrolo[2,3-d]pyrimidin-5-yl)-1H-benzo[d][1,2,3]triazole] | 33.3 |
| Cn1nnc2ccc(-c3c[nH]c4nc(NCC(C)(C)F)ncc34)cc21 [Compound 822, N-(2-Fluoro-2-methylpropyl)-5-(1-methyl-1H-benzo[d][1,2,3]triazol-6-yl)-7H-pyrrolo[2,3-d]pyrimidin-2-amine] | 2.9 |
| Cn1nnc2ccc(-c3c[nH]c4nc(NCC(C)(F)F)ncc34)cc21 [Compound 823, N-(2,2-Difluoropropyl)-5-(1-methyl-1H-benzo[d][1,2,3]triazol-6-yl)-7H-pyrrolo[2,3-d]pyrimidin-2-amine] | 6 |
| Cn1nnc2ccc(-c3c[nH]c4nc(NCC(F)(F)F)ncc34)cc21 [Compound 824, 5-(1-Methyl-1H-benzo[d][1,2,3]triazol-6-yl)-N-(2,2,2-trifluoroethyl)-7H-pyrrolo[2,3-d]pyrimidin-2-amine] | 3.4 |
| C[C@@H](Nc1ncc2c(-c3ccc4nnn(C)c4c3)c[nH]c2n1)C(F)(F)F [Compound 825, (R)-5-(1-Methyl-1H-benzo[d][1,2,3]triazol-6-yl)-N-(1,1,1-trifluoropropan-2-yl)-7H-pyrrolo[2,3-d]pyrimidin-2-amine] | 4.8 |
| C[C@H](Nc1ncc2c(-c3ccc4nnn(C)c4c3)c[nH]c2n1)C(F)(F)F [Compound 826, (S)-5-(1-Methyl-1H-benzo[d][1,2,3]triazol-6-yl)-N-(1,1,1-trifluoropropan-2-yl)-7H-pyrrolo[2,3-d]pyrimidin-2-amine] | 43 |
| CN1CCC(Nc2ncc3c(-c4ccc5nnn(C)c5c4)c[nH]c3n2)CC1 [Compound 841, 5-(1-Methyl-1H-benzo[d][1,2,3]triazol-6-yl)-N-(1-methylpiperidin-4-yl)-7H-pyrrolo[2,3-d]pyrimidin-2-amine] | 13.6 |
| Cn1nnc2ccc(-c3c[nH]c4nc(NC5CCOCC5)ncc34)cc21 [Compound 843, 5-(1-Methyl-1H-benzo[d][1,2,3]triazol-6-yl)-N-(tetrahydro-2H-pyran-4-yl)-7H-pyrrolo[2,3-d]pyrimidin-2-amine] | 23.2 |
| CCn1nnc2ccc(-c3c[nH]c4nc(NCC(C)(C)F)ncc34)cc21 [Compound 865, 5-(1-Ethyl-1H-benzo[d][1,2,3]triazol-6-yl)-N-(2-fluoro-2-methylpropyl)-7H-pyrrolo[2,3-d]pyrimidin-2-amine] | 7.3 |
| Cc1nnc2ccc(-c3c[nH]c4nc(NCC(C)(C)F)ncc34)cn12 [Compound 895, N-(2-Fluoro-2-methylpropyl)-5-(3-methyl-[1,2,4]triazolo[4,3-a]pyridin-6-yl)-7H-pyrrolo[2,3-d]pyrimidin-2-amine] | 83.2 |

| Compound | EC50 [nM] |
| --- | --- |
| CC(C)Cc1ncc2c(-c3ccc4nccn4n3)c[nH]c2n1 [Compound 897, 5-(Imidazo[1,2-b]pyridazin-6-yl)-2-isobutyl-7H-pyrrolo[2,3-d]pyrimidine] | 66.8 |
| CC(C)(C)CNc1ncc2c(-c3ccc4nccn4n3)c[nH]c2n1 [Compound 907, 5-(Imidazo[1,2-b]pyridazin-6-yl)-N-neopentyl-7H-pyrrolo[2,3-d]pyrimidin-2-amine] | 8.8 |
| FC(F)(F)CNc1ncc2c(-c3ccc4nccn4n3)c[nH]c2n1 [Compound 911, 5-(Imidazo[1,2-b]pyridazin-6-yl)-N-(2,2,2-trifluoroethyl)-7H-pyrrolo[2,3-d]pyrimidin-2-amine] | 9.6 |
| C[C@@H](Nc1ncc2c(-c3ccc4nccn4n3)c[nH]c2n1)C1CC1 [Compound 918, (R)—N-(1-Cyclopropylethyl)-5-(imidazo[1,2-b]pyridazin-6-yl)-7H-pyrrolo [2,3-d]pyrimidin-2-amine] | 3.4 |
| c1cn2nc(-c3c[nH]c4nc(NC5CCOCC5)ncc34)ccc2n1 [Compound 930, 5-(Imidazo[1,2-b]pyridazin-6-yl)-N-(tetrahydro-2H-pyran-4-yl)-7H-pyrrolo[2,3-d]pyrimidin-2-amine] | 4 |
| CC(C)(F)CNc1ncc2c(-c3ccc4ncc(Cl)n4n3)c[nH]c2n1 [Compound 952, 5-(3-chloroimidazo[1,2-b]pyridazin-6-yl)-N-(2-fluoro-2-methylpropyl)-7H-pyrrolo[2,3-d]pyrimidin-2-amine] | 2.7 |
| Cc1cn2nc(-c3c[nH]c4nc(NC(C)C)ncc34)ccc2n1 [Compound 991, N-Isopropyl-5-(2-methylimidazo[1,2-b]pyridazin-6-yl)-7H-pyrrolo[2,3-d]pyrimidin-2-amine] | 25.7 |
| Cc1cn2nc(-c3c[nH]c4nc(NCC(C)(C)F)ncc34)ccc2n1 [Compound 995, N-(2-Fluoro-2-methylpropyl)-5-(2-methylimidazo[1,2-b]pyridazin-6-yl)-7H-pyrrolo[2,3-d]pyrimidin-2-amine] | 9.3 |
| Cc1cnc2ccc(-c3c[nH]c4nc(NC5CCN(C)CC5)ncc34)nn12 [Compound 1057, 5-(3-Methylimidazo[1,2-b]pyridazin-6-yl)-N-(1-methylpiperidin-4-yl)-7H-pyrrolo[2,3-d]pyrimidin-2-amine] | 9.8 |
| CC(C)(F)CNc1ncc2c(-c3ccc4ncc(C(F)F)n4n3)c[nH]c2n1 [Compound 1081, 5-(3-(Difluoromethyl)imidazo[1,2-b]pyridazin-6-yl)-N-(2-fluoro-2-methylpropyl)-7H-pyrrolo[2,3-d]pyrimidin-2-amine] | 2.6 |
| CC(C)(F)CNc1ncc2c(-c3ccn4nccc4c3)c[nH]c2n1 [Compound 1125, N-(2-Fluoro-2-methylpropyl)-5-(pyrazolo[1,5-a]pyridin-5-yl)-7H-pyrrolo [2,3-d]pyrimidin-2-amine] | 4.6 |
| C[C@@H](Nc1ncc2c(-c3ccn4nccc4c3)c[nH]c2n1)C(F)(F)F [Compound 1128, (R)-5-(Pyrazolo[1,5-a]pyridin-5-yl)-N-(1,1,1-trifluoropropan-2-yl)-7H-pyrrolo[2,3-d]pyrimidin-2-amine] | 2.4 |
| CN1CCC(Nc2ncc3c(-c4ccn5nccc5c4)c[nH]c3n2)CC1 [Compound 1146, N-(1-Methylpiperidin-4-yl)-5-(pyrazolo[1,5-a]pyridin-5-yl)-7H-pyrrolo[2,3-d]pyrimidin-2-amine] | 28.5 |
| CC(C)(F)CNc1ncc2c(-c3ccn4ncc(F)c4c3)c[nH]c2n1 [Compound 1157, N-(2-Fluoro-2-methylpropyl)-5-(3-fluoropyrazolo[1,5-a]pyridin-5-yl)-7H-pyrrolo[2,3-d]pyrimidin-2-amine] | 68.9 |
| CN1CCC(Nc2ncc3c(-c4ccn5ncc(-c6cnn(C)c6)c5c4)c[nH]c3n2)CC1 [Compound 1190, 5-(3-(1-Methyl-1H-pyrazol-4-yl)pyrazolo[1,5-a]pyridin-5-yl)-N-(1-methylpiperidin-4-yl)-7H-pyrrolo[2,3-d]pyrimidin-2-amine] | 3 |
| O=C(c1cnn2ccc(-c3c[nH]c4nc(C5CCC5)ncc34)cc12)N1CCCCC1 [Compound 1205, (5-(2-Cyclobutyl-7H-pyrrolo[2,3-d]pyrimidin-5-yl)pyrazolo[1,5-a]pyridin-3-yl)(piperidin-1-yl)methanone] | 259 |
